Series [1] has as its system Proteus vulgaris. Description: Ratio of chloromycin MIC to compound MIC for Proteus vulgaris ATCC 8427. The series is classed as functional.
For series [2], the system named is Saccharomyces cerevisiae. The series is described as follows: Antimicrobial activity against Saccharomyces cerevisiae ATCC 9763 after 24 hrs by microbroth dilution method. The series is classed as functional. The note with it: ATCC 9763, 24 h. On the technique in general: Dilution methods test growth across graded concentrations, often in twofold steps.
In series [3] the target is Albumin (Homo sapiens, UniProt P02768). Description: Binding affinity to human serum albumin at 0.2 to 1.8 10^-5 mol/L at pH 7.4 at 294 K by UV-vis spectroscopic analysis. In kind it is ADME. The note with it: isolated protein.
Albumin, sequence (P02768 whole entry): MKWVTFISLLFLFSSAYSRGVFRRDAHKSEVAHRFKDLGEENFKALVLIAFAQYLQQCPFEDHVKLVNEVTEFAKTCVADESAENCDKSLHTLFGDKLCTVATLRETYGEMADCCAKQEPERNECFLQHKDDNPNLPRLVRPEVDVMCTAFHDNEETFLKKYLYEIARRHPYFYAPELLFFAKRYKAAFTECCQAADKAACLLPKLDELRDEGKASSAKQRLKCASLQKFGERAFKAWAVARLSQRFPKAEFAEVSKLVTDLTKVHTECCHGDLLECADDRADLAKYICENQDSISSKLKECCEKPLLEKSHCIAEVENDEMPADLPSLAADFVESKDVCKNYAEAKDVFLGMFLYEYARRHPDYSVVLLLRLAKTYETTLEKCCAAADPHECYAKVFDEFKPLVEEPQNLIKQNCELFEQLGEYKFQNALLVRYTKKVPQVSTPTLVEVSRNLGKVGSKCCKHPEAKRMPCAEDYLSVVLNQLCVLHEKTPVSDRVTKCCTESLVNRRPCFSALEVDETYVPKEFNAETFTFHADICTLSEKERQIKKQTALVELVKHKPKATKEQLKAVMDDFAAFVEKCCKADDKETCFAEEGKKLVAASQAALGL
The subject of series [4] is Candida albicans. Description: Antimicrobial activity against Candida albicans ATCC 90029 after 24 hrs by microbroth dilution method. The note with it: ATCC 90029, 24 h. The series is classed as functional.
For series [5], the system named is Micrococcus luteus. Description: Antimicrobial activity against Micrococcus luteus ATCC 4698 after 24 hrs by microbroth dilution method. In kind it is functional. The note with it: NCTC 2665, 24 h.
Series [6] has as its system Candida. Description: Antimicrobial activity against Candida mycoderma after 24 hrs by microbroth dilution method. The series is classed as functional.
In series [7] the test system is Proteus vulgaris. The series is described as follows: Ratio of norfloxacin MIC to compound MIC for Proteus vulgaris ATCC 8427. The series is classed as functional.
In series [8] the test system is Bacillus spizizenii. Description: Antimicrobial activity against Bacillus subtilis ATCC 6633 after 24 hrs by microbroth dilution method. The series is classed as functional. The note with it: ATCC 6633, 24 h.
Series [9] concerns Proteus vulgaris. The series is described as follows: Ratio of berberine MIC to compound MIC for Proteus vulgaris ATCC 8427. The series is classed as functional.
Series [10] has as its system Cyberlindnera jadinii. Description: Antimicrobial activity against Candida utilis ATCC 9950 after 24 hrs by microbroth dilution method. The series is classed as functional. The note with it: Williopsis jadinii, ATCC 9950, 24 h.
Series [11] concerns Escherichia coli. Description: Antimicrobial activity against Escherichia coli […] after 24 hrs by microbroth dilution method. In kind it is functional.
Series [12] deals with Pseudomonas aeruginosa. Description: Antimicrobial activity against Pseudomonas aeruginosa ATCC 27853 after 24 hrs by microbroth dilution method. In kind it is functional. To be noted: ATCC 27853, 24 h.
Series [13] relates to Proteus vulgaris. Description: Antimicrobial activity against Proteus vulgaris ATCC 8427 after 24 hrs by microbroth dilution method. The series is classed as functional. The note with it: ATCC 8427, 24 h.
The test system of series [14] is Staphylococcus aureus. Description: Antimicrobial activity against Staphylococcus aureus ATCC 25923 after 24 hrs by microbroth dilution method. The series is classed as functional. The note with it: ATCC 25923, 24 h.
Series [15] has as its system Shigella dysenteriae. Description: Antimicrobial activity against Shigella dysenteriae ATCC 51252 after 24 hrs by microbroth dilution method. In kind it is functional. The note with it: ATCC 51252, 24 h.
Series [16] has as its system Staphylococcus aureus. The series is described as follows: Antimicrobial activity against methicillin-resistant Staphylococcus aureus N315 after 24 hrs by microbroth dilution method. To be noted: N315, 24 h. In kind it is functional.
Series [17] concerns Shigella dysenteriae. The series is described as follows: Ratio of chloromycin MIC to compound MIC for Shigella dysenteriae ATCC 51252. The series is classed as functional.
Series [18] has as its system Shigella dysenteriae. The series is described as follows: Ratio of berberine MIC to compound MIC for Shigella dysenteriae ATCC 51252. The series is classed as functional.

Eight compounds from ChEMBL document CHEMBL3217727, “Berberine azoles as antimicrobial agents: synthesis, biological evaluation and their interactions with human serum albumin” (Medchemcomm, 2013) can be followed below.

Values after ≈ are worked out from the molar mass of the structure shown.

For `COc1ccc2cc3[n+](cc2c1OCCN(CCn1cncn1)Cc1ccc(F)cc1F)CCc1cc2c(cc1-3)OCO2.[Cl-]`, the figures for the Ratio in series [1], in [7] and in series [9] were 16, 4 and 64, respectively. The MIC80 in series [2] came out at 32 µg/mL; in [4], 4 µg/mL; in series [6], 2 µg/mL; in series [10] it was 8 µg/mL. Also, the outcome in series [3] was Active. Besides, the minimum inhibitory concentration (MIC) in series [5] and in [8] was 8 µg/mL each time.

As to `Cc1cc2ncn(CCN(CCBr)Cc3ccc(F)cc3F)c2cc1C`, the minimum inhibitory concentration (MIC) in [11] amounted to 128 µg/mL (≈ 303 µM); in series [12] it was 64 µg/mL (≈ 152 µM); in series [5], 64 µg/mL (≈ 152 µM); in series [13], 128 µg/mL (≈ 303 µM); in series [8], 32 µg/mL (≈ 75.8 µM); in [14], 64 µg/mL (≈ 152 µM). In addition, the values for the MIC in series [15] and in [16] were 16 µg/mL (≈ 37.9 µM) and 128 µg/mL (≈ 303 µM), respectively. For the same compound, the MIC80 in series [2] is 256 µg/mL (≈ 606 µM); in series [4] it was 128 µg/mL (≈ 303 µM); in series [6] it was 64 µg/mL (≈ 152 µM); in [10], 128 µg/mL (≈ 303 µM).

Regarding `Fc1ccc(CN(CCBr)CCn2nnc3ccccc32)c(F)c1`, the MIC in series [11] was determined as 128 µg/mL (≈ 324 µM); in series [12], 128 µg/mL (≈ 324 µM); in series [5], 256 µg/mL (≈ 648 µM); in series [13], 256 µg/mL (≈ 648 µM); in series [8] it was 256 µg/mL (≈ 648 µM); in series [14], 256 µg/mL (≈ 648 µM). Besides, the values for the MIC in [15] and in series [16] were 64 µg/mL (≈ 162 µM) and 128 µg/mL (≈ 324 µM), respectively. Also, the MIC80 was 256 µg/mL (≈ 648 µM) in series [2], above 512 µg/mL in series [4], above 512 µg/mL in series [6] and 256 µg/mL (≈ 648 µM) in [10].

As to `COc1ccc2cc3[n+](cc2c1OCCN(CCn1cnc2ccccc21)Cc1ccc(F)cc1F)CCc1cc2c(cc1-3)OCO2.[Cl-]`, the minimum inhibitory concentration (MIC) in series [11] worked out at 32 µg/mL; in series [12], 16 µg/mL; in series [5] it was 16 µg/mL; in series [13] it was 32 µg/mL; in [8], 32 µg/mL; in [14] it was 16 µg/mL. The results for the minimum inhibitory concentration (MIC) in series [15] and in [16] were 8 µg/mL and 32 µg/mL, respectively. The MIC80 in [2] stood at 32 µg/mL; in series [4], 32 µg/mL; in series [6] it was 32 µg/mL; in series [10] it was 16 µg/mL.

Consider `COc1ccc2cc3[n+](cc2c1OCCN(CCn1cnc2cc(C)c(C)cc21)Cc1ccc(F)cc1F)CCc1cc2c(cc1-3)OCO2.[Cl-]`, for which the minimum inhibitory concentration (MIC) in series [11] stood at 32 µg/mL; in series [12], 8 µg/mL; in series [5], 16 µg/mL; in series [13], 8 µg/mL; in [8], 16 µg/mL; in [14], 32 µg/mL. Moreover, the MIC in series [15] is 4 µg/mL; in [16] it was 32 µg/mL. The MIC80 in [2] came out at 16 µg/mL; in series [4] it was 32 µg/mL; in series [6], 16 µg/mL; in series [10], 16 µg/mL. The figures for the Ratio in series [17] and in series [18] were 8 and 64, respectively.

`COc1ccc2cc3[n+](cc2c1OCCN(CCn1nnc2ccccc21)Cc1ccc(F)cc1F)CCc1cc2c(cc1-3)OCO2.[Cl-]`: the MIC amounted to 128 µg/mL in series [11]; 64 µg/mL in series [12]; 128 µg/mL in [5]; 128 µg/mL in series [13]; 128 µg/mL in [8]; 64 µg/mL in [14]. Also, the minimal inhibitory concentration (MIC) was found to be 32 µg/mL in series [15] and 64 µg/mL in series [16]. The MIC80 was 16 µg/mL in series [2], above 512 µg/mL in series [4], above 512 µg/mL in series [6] and 32 µg/mL in series [10].

As for `Fc1ccc(CN(CCBr)CCSc2nc3ccccc3[nH]2)c(F)c1`, the MIC in [11], in series [12], in [5], in [13], in [8] and in [14] was above 512 µg/mL each time. Moreover, the MIC in series [15] and in series [16] was above 512 µg/mL throughout. Moreover, the MIC80 in [2] is 512 µg/mL (≈ 1200 µM); in series [4], above 512 µg/mL; in series [6] it was above 512 µg/mL; in series [10], 512 µg/mL (≈ 1200 µM).

`COc1ccc2cc3[n+](cc2c1OCCN(CCSc1nc2ccccc2[nH]1)Cc1ccc(F)cc1F)CCc1cc2c(cc1-3)OCO2.[Cl-]`: the MIC was determined as 32 µg/mL in series [11]; 64 µg/mL in series [12]; 128 µg/mL in series [5]; 64 µg/mL in series [13]; 64 µg/mL in series [8]; 32 µg/mL in series [14]. Also, the minimum inhibitory concentration (MIC) in [15] came out at 128 µg/mL; in series [16], 64 µg/mL. The MIC80 in series [2] was 64 µg/mL; in series [4], 64 µg/mL; in series [6], 128 µg/mL; in [10], 64 µg/mL.

A word on the MIC80: it is the lowest concentration that inhibits either 80% of growth or 80% of the strains tested, depending on the study. Low readings indicate greater potency, high ones weaker potency. The term MIC denotes the smallest concentration in the dilution series that meets the test's criterion for growth inhibition.
